Measurements published in publication PMC4411102 (PLoS ONE, 2015).

How the values were obtained:
HIV-1 NL4-3 (wt) = assay type: cell-based
[1] = test system: HL2/3 cells expressing gp120; assay: Flow cytometry, HL2/3 cells expressing gp120; assay type: binding; conditions: 35.7μM HbAHP-25, 1 hr at RT
Experimental: (§2) Cells were washed with same buffer twice and binding was evaluated using flow cytometer (BD Accuri C6, USA). The data was acquired and analyzed on BD Accuri software.

HeLa cells = assay: Flow cytometry, HeLa cells (no gp120); assay type: binding; conditions: 35.7μM HbAHP-25, 1 hr at RT
Experimental: as §2

[2] = test system: PBMCs, VK2/E6E7, TZM-bl, and CEM-GFP cells; assay: MTT cytotoxicity assay; assay type: cell-based, human
Experimental: Briefly, PBMCs, VK2/E6E7, TZM-bl, and CEM-GFP cells (5x10^4 for 24 hr assay and 2x10^4 cells for 120 hr assay) were seeded in a 96-well microtiter plate 24 hrs prior to the treatment with peptides. Cells were treated with different concentrations of peptides (4.4–1142.4μM). MTT (10 μl of 1mg/ml) was added to each well, followed by addition of 100 μl of DMSO (Sigma-Aldrich) after 3 hrs. The absorbance was measured at 540nm using ELISA reader (ELX-800, BioTek Instruments Ltd, USA.). Untreated cells were used as medium control and 0.1% Triton X-100 treated cells served as a positive control.

HIV-1 IIIB and HIV-1 BaL = assay: Stability in seminal plasma and vaginal fluid (residual anti-HIV activity); assay type: in vitro ADME; conditions: 35.7 μM, up to 72 hrs
HIV-1 IIIB [3] = assay: Anti-HIV activity, p24 antigen assay in H9 cells; assay type: cell-based; set-up: key to Anti-HIV activity: +: moderate; ++: significant; NA: No activity; conditions: for Anti-HIV activity (in words): 0.1 MoI HIV-1 IIIB pre-incubated with peptide, H9 cells, p24 on day 4
Experimental: Supplementary file pone.0124839.s002.tif: S2 Fig Anti-HIV activity of 3 designed peptides. Anti HIV activity of three peptides was determined using H9 cells. H9 cells were infected for 4 hrs with 0.1 MoI of HIV-1 IIIB pre-incubated with various concentrations of peptides. Peptides were added post infection as well. Supernatant was collected on day 4 post infection, and p24 antigen assay was performed. […] (TIF) Click here for additional data file.
Supplementary file pone.0124839.s003.tif: S3 Fig Anti-HIV activity of peptide analogues of peptide 1. After modifying the peptide 1, we performed anti-HIV assay as earlier. HIV-1 IIIB was pre-incubated with peptide analogues for 1 hr and then added to H9 cells for 4 hrs. Levels of p24 levels were determined on day 4 post infection. […] (TIF) Click here for additional data file.

gp120 of HIV-1 BaL = assay: Binding ELISA, gp120 of HIV-1 BaL
Experimental: (§1) After blocking with 3% bovine serum albumin (BSA) in PBS for 30 min, 100 μl of gp120 (100ng/well) in PBS-0.05% BSA was added to each well and incubated for 2 hrs at 37°C. After three washings with PBS-Tween-20 (PBS-T), cells were incubated with anti-gp120 antibody at 1:200 dilution and then with horse radish peroxidase-(HRP) conjugated secondary goat anti-human antibody (1:10000 dilution) for 1 hr at 37°C. This was followed by incubation with O-phenylenediamine for 20 min. The absorbance was measured at 492 nm on a microplate ELISA reader (ELx-800, Bio-Tek Instruments, USA). Background values obtained in the wells without HbAHP-25 were subtracted from the absorbance values from wells having all other reagents.

HIV-1 VSV = assay type: cell-based, HIV-1 pseudotyped with VSV-G
[4] = test system: vaginal/endocervical epithelial cells
HIV-1 NL4-3 = assay: GFP expression in CEM-GFP cells; conditions: HbAHP-25 prior to infection, day 5 post infection
Experimental: Supernatants were collected and accumulated p24 levels were determined by sandwich ELISA as per the manufacturer’s protocol (XpressBio, Thurmont, MD, USA). AZT (10nM) was used as positive control for inhibition. For GFP analysis, CEM-GFP cells were observed under fluorescent microscope (Carl Zeiss, Oberkochen, Germany) and photographed using a digital camera (DSC–S75; Sony, Tokyo, Japan). IC50 was defined as the concentration that inhibited 50% of viral activity. The selectivity index (SI) was evaluated as the ratio of CC50 to IC50 (SI = CC50/ IC50).

CD4 binding to gp120 = assay: Competitive ELISA, CD4 binding to gp120; set-up: species or system HIV-1; conditions: gp120 pre-incubated with HbAHP-25 30 min, then CD4 1 hr
Experimental: 96 well microtiter plate was coated with soluble gp120 (1μg/well) from HIV-1 BaL and HIV-1 IIIB strains for 16 hrs at 4°C. […] Anti-CD4 monoclonal antibody (1:200) was added to the wells, followed by HRP-labeled goat anti-human secondary antibody (1:10000). Rest of the protocol followed was same as described above.

gp120 = gp120 (Human immunodeficiency virus type 1 group M subtype B, UniProt P04578); assay: Surface plasmon resonance; assay type: binding, HIV-1
Experimental: Briefly, gp120 (20 μg/ml) was immobilized onto carboxymethylated dextran (CM5) surface based sensor chip by amine coupling method according to the manufacturer’s instructions. […] 10mM NaOH and 0.5% SDS were used to regenerate the sensor chip surface after each experimental cycle. The binding response in resonance units (RU) was recorded as a function of time. Non-specific binding was subtracted from the control flow cells without gp120. Binding kinetics was determined with BIA evaluation 4.1 software (BIAcore) using 1:1 Langmuir binding model.

TZM-bl cells = assay: Flow cytometry, TZM-bl cells (no gp120); assay type: binding; conditions: 35.7μM HbAHP-25, 1 hr at RT
Experimental: as §2

gp120 of HIV-1 IIIB = assay: Binding ELISA, gp120 of HIV-1 IIIB; conditions: ELISA
Experimental: as §1
Supplementary file pone.0124839.s001.tif: S1 Fig Binding of designed peptides to gp120. Peptides that were designed in silico were evaluated for their binding to gp120 of HIV-1 IIIB. Peptides were coated on 96 well microtiter plate for 16 hrs and then incubated with 500ng of gp120 for 2 hrs at 37°C. This was followed by addition of anti-gp120 antibody, and absorbance was read at 492nm. Background absorbance was subtracted from the wells where peptides were not coated. […] (TIF) Click here for additional data file.

[5] = Circular dichroism spectroscopy; assay type: physicochemical; conditions: 37°C
Experimental: CD spectra was performed on a JASCO CD Spectrometer (J-815) at 37 °C using a 5.0-nm bandwidth, 0.1-cm path length, 5-s response time, and a 10-nm/min scanning speed.

HIV-1 IIIB and ADA5 = assay: Time-of-addition assay in TZM-bl cells; conditions: 71.40 μM
Experimental: Luciferase activity was measured at 48 hrs post treatment using Luminometer (ELx-800, Bio-Tek Instruments, USA). VRC01 (0.1 μM) antibody was used as a positive control.

HIV-1 IIIB [6] = assay: Anti-HIV activity in biological fluids, HIV-1 IIIB, luciferase; assay type: cell-based; conditions: TZM-bl luciferase
[7] = 2.2–71.40 μM coated, gp120 100ng/well

## CC(C)C[C@H](NC(=O)[C@H](CC(C)C)NC(=O)[C@H](CCCCN)NC(=O)[C@H](CS)NC(=O)[C@H](CC(N)=O)NC(=O)[C@@H](NC(=O)[C@@H]1CCCN1C(=O)[C@H](CC(=O)O)NC(=O)[C@@H](NC(=O)[C@H](CCCNC(=N)N)NC(=O)[C@H](CC(C)C)NC(=O)[C@H](CCCCN)NC(=O)[C@H](Cc1c[nH]cn1)NC(=O)[C@H](C)N)C(C)C)C(C)C)C(=O)N[C@@H](CO)C(=O)N[C@@H](Cc1c[nH]cn1)C(=O)N[C@@H](CS)C(=O)N[C@@H](CC(C)C)C(=O)N[C@@H](CC(C)C)C(=O)N[C@H](C(=O)N[C@H](C(=O)N[C@@H](CC(C)C)C(=O)N[C@@H](C)C(=O)N[C@@H](CCCNC(=N)N)C(=O)N[C@@H](Cc1c[nH]cn1)C(N)=O)[C@@H](C)O)C(C)C [HbAHP-25]
HIV-1 NL4-3 (wt)
  Infectivity of HIV-1 (wt): inhibited
[1]
  Shift in fluorescent peak in FL-1A channel: 60.10 ± 4.3%
HeLa cells
  Shift in fluorescent peak in FL-1A channel: < 3%
[2]; CC50 versus IC50
  CC50 fold higher than IC50: 5 fold
[2]; MTT
  Cytotoxicity in words: not cytotoxic
[2]; dose higher than its IC50
  Dose without adverse effect on viability, relative to IC50: 3 fold
HIV-1 IIIB and HIV-1 BaL; human seminal plasma
  Loss in anti-HIV activity after pre-incubation with seminal plasma: did not observe any significant loss
HIV-1 IIIB and HIV-1 BaL; human vaginal fluid
  Loss in anti-HIV activity after pre-incubation with vaginal fluid: did not observe any significant loss
lactobacilli
  Effect on lactobacilli: not inhibitory to lactobacilli
HIV-1 IIIB [3]; listed as analogue-1b
  Anti-HIV activity (in words): showed better anti-HIV activity than analogue-1a and analogue of peptide-3
HIV-1 IIIB [3]; listed as peptide analogue-1b
  Anti-HIV activity (in words): significantly enhanced
HIV-1 IIIB [3]; class symbols of Table 1, HIV-1 IIIB in H9 cells, p24 (S2, S3 Fig)
  Anti-HIV activity: ++
gp120 of HIV-1 BaL; [7]
  Binding to recombinant gp120 of HIV-1 BaL: binds to recombinant gp120 of both HIV-1 IIIB and HIV-1 BaL in a dose dependent manner
gp120 of HIV-1 BaL; HIV-1 BaL gp120
  Concentration with significant binding to gp120: above 8.9 μM
HIV-1 VSV
  Entry of HIV-1 VSV: able to enter the cells within one hour even in the presence of HbAHP-25
  Infectivity of HIV-1 VSV: not affected
[4]
  Disruption of tight junctions: does not cause disruptions of tight junctions
  Induction of inflammation: does not induce any inflammation
HIV-1 NL4-3
  GFP expression: reduced
CD4 binding to gp120
  Inhibition of CD4 binding to gp120: significant reduction in the absorbance
gp120; SPR
  Rmax: 99.7 RU
gp120; fit to 1:1 Langmuir model
  Chi2: 14.7
TZM-bl cells
  Shift in fluorescent peak in FL-1A channel: < 3%
gp120 of HIV-1 IIIB; [7]
  Binding to recombinant gp120 of HIV-1 IIIB: binds to recombinant gp120 of both HIV-1 IIIB and HIV-1 BaL in a dose dependent manner
gp120 of HIV-1 IIIB; HIV-1 IIIB gp120
  Concentration with significant binding to gp120: above 8.9 μM
[5]; 10 μM, PBS pH 7 / sodium acetate pH 4, from ellipticity at 222 nm
  α-helical content: about 50%
[5]; pH 4 versus pH 7, 10 μM
  Structure at low pH: no significant change in its structure at low pH
HIV-1 IIIB and ADA5; During: peptide and virus added simultaneously
  Anti-HIV activity, during infection: still significant
HIV-1 IIIB and ADA5; Post: peptide 6 hrs after infection
  Anti-HIV activity, post infection: significantly lesser than that shown by the first two groups
HIV-1 IIIB and ADA5; Pre: virus pre-incubated with peptide
  Luciferase activity, pre-incubation: significantly lesser luciferase activity
HIV-1 IIIB and ADA5; peptide at all three steps
  Inhibition, all steps: Maximum inhibition
HIV-1 IIIB [6]; human seminal plasma
  Change in anti-HIV activity with seminal plasma: did not observe any significant change
HIV-1 IIIB [6]; human vaginal fluid
  Change in anti-HIV activity with vaginal fluid: did not observe any significant change
